Source: patent US6376497B1, “Antifungal azole derivatives having a fluorinated vinyl group and process for preparing same” (Korea Research Institute of Chemical Technology, priority 1999, dated 2002)
≈ marks a conversion by molar mass, not a printed value.

How the values were obtained:
Assay in all cases: In vitro antifungal activity, microbroth dilution MIC
Type in all cases: cell-based
[1] = tested on: Aspergillus niger A. 16404; details: 4 to 48 hours; for Minimal inhibitory concentration(MIC), A. niger A. 16404: RPMI-1640, 35° C., no growth observed
How it was run: (§1)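 Broth microdilution adapted from NCCLS M27, in RPMI-1640 with 0.165 M MOPS, pH 7.0. Yeast or mould inoculum at 2×10^3 CFU/ml was mixed 1:1 with DMSO-derived compound solutions (200 to 0.10 μg/ml before mixing) and incubated at 35 °C for 4 to 48 h. MIC was the concentration showing no growth.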

[2] = tested on: Cryptococcus neoformans B. 42419; details: 4 to 48 hours; for Minimal inhibitory concentration(MIC), Cry. neoformans B. 42419: RPMI-1640, 35° C., no growth observed
How it was run: as §1

[3] = tested on: Aspergillus furnigatus B. 19119; details: 4 to 48 hours; for Minimal inhibitory concentration(MIC), A furnigatus B. 19119: RPMI-1640, 35° C., no growth observed
How it was run: as §1

[4] = tested on: Candida parapsitosis A. 7330; details: 4 to 48 hours; for Minimal inhibitory concentration(MIC), C. parapsitosis A. 7330: RPMI-1640, 35° C., no growth observed
How it was run: as §1

[5] = tested on: Candida albicans A. 10231; details: 4 to 48 hours; for Minimal inhibitory concentration(MIC), C. albicans A. 10231: RPMI-1640, 35° C., no growth observed
How it was run: as §1

[6] = tested on: Torulopsis glabrata B. 16205; details: 4 to 48 hours; for Minimal inhibitory concentration(MIC), T. glabrata B. 16205: RPMI-1640, 35° C., no growth observed
How it was run: as §1

[7] = tested on: Cryptococcus neoformans A. 34144; details: 4 to 48 hours; for Minimal inhibitory concentration(MIC), Cry. neoformans A. 34144: RPMI-1640, 35° C., no growth observed
How it was run: as §1

[8] = tested on: Candida albicans IFO. 1385; details: 4 to 48 hours; for Minimal inhibitory concentration(MIC), C. albicans IFO. 1385: RPMI-1640, 35° C., no growth observed
How it was run: as §1

[9] = tested on: Candida tropicalis A. 13803; details: 4 to 48 hours; for Minimal inhibitory concentration(MIC), C. tropicalis A. 13803: RPMI-1640, 35° C., no growth observed
How it was run: as §1

Candida krusei K. 11655 = details: 4 to 48 hours; for Minimal inhibitory concentration(MIC), C. krusei K. 11655: RPMI-1640, 35° C., no growth observed
How it was run: as §1

[10] = tested on: Candida pseudotropicalis K. 11658; details: 4 to 48 hours; for Minimal inhibitory concentration(MIC), C. pseudotropicalis K. 11658: RPMI-1640, 35° C., no growth observed
How it was run: as §1

[11] = tested on: Trichophyton mentagrophytes A. 9129; details: 4 to 48 hours; for Minimal inhibitory concentration(MIC), T. mentagrophytes A. 9129: RPMI-1640, 35° C., no growth observed
How it was run: as §1

[12] = tested on: Cryptococcus neoformans IFM. 40092; details: 4 to 48 hours; for Minimal inhibitory concentration(MIC), Cry. neoformans IFM. 40092: RPMI-1640, 35° C., no growth observed
How it was run: as §1

Candida albicans C1-2 = details: 4 to 48 hours; for Minimal inhibitory concentration(MIC), C. albicans C1-2: RPMI-1640, 35° C., no growth observed
How it was run: as §1

[13] = tested on: Trichophyton mentagrophytes B. 32663; details: 4 to 48 hours; for Minimal inhibitory concentration(MIC), T. mentagrophytes B. 32663: RPMI-1640, 35° C., no growth observed
How it was run: as §1

Minimal inhibitory concentration(MIC), A. niger A. 16404 [1]	Minimal inhibitory concentration(MIC), Cry. neoformans B. 42419 [2]	Minimal inhibitory concentration(MIC), A furnigatus B. 19119 [3]	Minimal inhibitory concentration(MIC), C. parapsitosis A. 7330 [4]	Minimal inhibitory concentration(MIC), C. albicans A. 10231 [5]	Minimal inhibitory concentration(MIC), T. glabrata B. 16205 [6]	Minimal inhibitory concentration(MIC), Cry. neoformans A. 34144 [7]	Minimal inhibitory concentration(MIC), C. albicans IFO. 1385 [8]	Minimal inhibitory concentration(MIC), C. tropicalis A. 13803 [9]	Minimal inhibitory concentration(MIC), C. krusei K. 11655 (Candida krusei K. 11655)	Minimal inhibitory concentration(MIC), C. pseudotropicalis K. 11658 [10]	Minimal inhibitory concentration(MIC), T. mentagrophytes A. 9129 [11]	Minimal inhibitory concentration(MIC), Cry. neoformans IFM. 40092 [12]	Minimal inhibitory concentration(MIC), C. albicans C1-2 (Candida albicans C1-2)	Minimal inhibitory concentration(MIC), T. mentagrophytes B. 32663 [13]	Compound	further results
–	–	–	–	–	–	–	–	–	–	–	–	–	–	–	FC(OCC1COC(Cn2ccnc2)(c2ccc(Cl)cc2Cl)O1)=C(c1ccc2c(c1)OCO2)C(F)(F)F (stereo not drawn) [Ex. 28]	Minimal inhibitory concentration (MIC) ([1]; A. niger A. 16404, RPMI-1640, 35° C.): 100 µg/mL (≈ 178 µM); Minimal inhibitory concentration (MIC) ([2]; Cry. neoformans B. 42419, RPMI-1640, 35° C.): 1.56 µg/mL (≈ 2.78 µM); Minimal inhibitory concentration (MIC) ([3]; A furnigatus B. 19119, RPMI-1640, 35° C.): 100 µg/mL (≈ 178 µM); Minimal inhibitory concentration (MIC) ([4]; C. parapsitosis A. 7330, RPMI-1640, 35° C.): 100 µg/mL (≈ 178 µM); Minimal inhibitory concentration (MIC) ([5]; C. albicans A. 10231, RPMI-1640, 35° C.): 25.0 µg/mL (≈ 44.5 µM); Minimal inhibitory concentration (MIC) ([6]; T. glabrata B. 16205, RPMI-1640, 35° C.): 25.0 µg/mL (≈ 44.5 µM); Minimal inhibitory concentration (MIC) ([7]; Cry. neoformans A. 34144, RPMI-1640, 35° C.): 1.56 µg/mL (≈ 2.78 µM); Minimal inhibitory concentration (MIC) ([8]; C. albicans IFO. 1385, RPMI-1640, 35° C.): 1.56 µg/mL (≈ 2.78 µM); Minimal inhibitory concentration (MIC) ([9]; C. tropicalis A. 13803, RPMI-1640, 35° C.): 100 µg/mL (≈ 178 µM); Minimal inhibitory concentration (MIC) (Candida krusei K. 11655; C. krusei K. 11655, RPMI-1640, 35° C.): >100 µg/mL; Minimal inhibitory concentration (MIC) ([10]; C. pseudotropicalis K. 11658, RPMI-1640, 35° C.): 100 µg/mL (≈ 178 µM); Minimal inhibitory concentration (MIC) ([11]; T. mentagrophytes A. 9129, RPMI-1640, 35° C.): 25.0 µg/mL (≈ 44.5 µM); Minimal inhibitory concentration (MIC) ([12]; Cry. neoformans IFM. 40092, RPMI-1640, 35° C.): 0.78 µg/mL (≈ 1.39 µM); Minimal inhibitory concentration (MIC) (Candida albicans C1-2; C. albicans C1-2, RPMI-1640, 35° C.): 25.0 µg/mL (≈ 44.5 µM); Minimal inhibitory concentration (MIC) ([13]; T. mentagrophytes B. 32663, RPMI-1640, 35° C.): 6.25 µg/mL (≈ 11.1 µM)
>100 µg/mL	3.13 µg/mL	>100 µg/mL	>100 µg/mL	100 µg/mL	100 µg/mL	3.13 µg/mL	3.13 µg/mL	>100 µg/mL	>100 µg/mL	>100 µg/mL	50.0 µg/mL	0.78 µg/mL	>100 µg/mL	25.0 µg/mL	FC(Oc1ccc(OCC2COC(Cn3ccnc3)(c3ccc(Cl)cc3Cl)O2)cc1)=C(c1ccc2c(c1)OCO2)C(F)(F)F (mixture of isomers) [Ex. 99]	–
>100 µg/mL	1.56 µg/mL	>100 µg/mL	>100 µg/mL	100 µg/mL	>100 µg/mL	1.56 µg/mL	12.5 µg/mL	>100 µg/mL	>100 µg/mL	>100 µg/mL	>100 µg/mL	0.78 µg/mL	100 µg/mL	>100 µg/mL	FC(OCC1COC(Cn2cncn2)(c2ccc(Cl)cc2Cl)O1)=C(c1ccc(Cl)cc1)C(F)(F)F (mixture of isomers) [Ex. 86]	–
>100 µg/mL	3.13 µg/mL	>100 µg/mL	100 µg/mL	100 µg/mL	100 µg/mL	1.56 µg/mL	3.13 µg/mL	>100 µg/mL	>100 µg/mL	100 µg/mL	6.25 µg/mL	0.39 µg/mL	50.0 µg/mL	3.13 µg/mL	FC(Oc1ccc(OCC2COC(Cn3ccnc3)(c3ccc(F)cc3F)O2)cc1)=C(c1cccc(C(F)(F)F)c1)C(F)(F)F (mixture of isomers) [Ex. 111]	–
